According to article PMC6479099, “Aminoguanidines: New leads for treatment of Giardia duodenalis infection” (International Journal for Parasitology: Drugs and Drug …, 2019):
Converted amounts (≈) assume the structure as drawn. Read-outs that look alike come from different tables or passages of the source.

Experiments:
[1] = tested on: Giardia duodenalis BAH2c2 strain, assemblage A; assay: Resazurin reduction assay, assemblage A isolate; type: cell-based; conditions: for MLC (minimum lethal concentration), Assemblage A: concentration at which no metabolism of resazurin was observed; for IC50: Giardia duodenalis, 24 h, read-out: IC50, Assemblage A
Experimental: (§1) G. duodenalis (BAH2c2 and BAH12 strain) was cultivated according to the method of Clark and Diamond in Keister's modified TYI-S-33 medium, supplemented with heat inactivated foetal bovine serum (Hyclone™, Thermo Fisher Scientific, Scoresby, Victoria, Australia) at 37 °C in plastic 9 mL screw-capped test tubes (nunc, Thermo Fisher Scientific, Scoresby, Victoria, Australia). Subcultures were performed once a confluent monolayer was observed, approximately 2–3 times per week ([Clark and Diamond, 2002]).
(§2) The in-vitro compound efficacy was determined using a resazurin reduction assay as previously described ([Benere et al., 2007]). The media of confluent cultures was replaced with fresh media and the cultures were placed on ice for 40 min to detach trophozoites. Trophozoites were enumerated using a haemocytometer and 50 000 trophozoites were added to each test well of a 96 well plate. Doubling or tripling dilutions of the test compounds were added to wells beginning at 25 or 50 μM compound concentration (previously prepared in DMSO). Metronidazole and DMSO (vehicle only) were used as controls. Plates were incubated under anaerobic conditions, using anaerobic gas generating sachets, (AnaeroGen, Thermo Fisher Scientific, Scoresby, Victoria, Australia) for 24 h at 37 °C. After incubation the media was removed and replaced with an equal volume of warm PBS. Resazurin (Alamarblue, Thermo Fisher Scientific, Scoresby, Victoria, Australia) was then added at 10% of the total volume of the wells. Plates were further incubated (1.5 h) for colour development and absorbance read at 570 nm and 630 nm. The percentage resazurin reduction was then calculated using the following formula:((εoxi630 x A570) – (εoxi570 x A630))/((εred570 x C630)-([…])) x 100Where: εoxi630 = 34798, εoxi570 = 80586, A570 = absorbance at 570 nm, A630 = absorbance at 630 nm, εred570 = 155677, εred630 = 5494, C630 = absorbance of negative control well at 630 nm and C570 = absorbance of negative control well at 570 nm.
(§3) For the resazurin reduction assay the mean and standard error of the mean were determined with each assay completed in triplicate. The IC50 was calculated using the log (inhibitor) vs. normalised response – variable slope function in Graphpad Prism. For the adherence assay mean and standard error of the mean were calculated and data analysed using an unpaired t-test, relative to untreated control.
(§4) The IC50 of each compound was determined using a resazurin reduction assay, which measures the metabolic activity of cells, using the log (inhibitor) vs. normalised response – variable slope function in Graphpad Prism. The compounds were tested against an assemblage A (BAH2c2, 24 h) and an assemblage B (BAH12, 24 h) isolate (Table 1). […] The effect of the compounds on the proliferation of Giardia trophozoites (BAH2c2) was also determined.
Absorbance was measured (630 and 570 nm), percent reduction of resazurin calculated and data presented as a percentage of the growth control. Treatment groups are: square - metronidazole; triangle –NCL 099; diamond - robenidine; and circle - NCL 062. Error ± SEM, n = 3. Data represents a typical experiment. Note the break in the x-axis indicates a change in the scale of drug concentration.

[2] = tested on: Giardia duodenalis BAH12, assemblage B; assay: Resazurin reduction assay, assemblage B isolate; type: cell-based; conditions: BAH12, 24 h; for IC50: Giardia duodenalis, resazurin metabolic assay
Experimental: as §1, §2, §3, §4

[3] = tested on: Giardia trophozoites (BAH2c2); assay: Proliferation of Giardia trophozoites (resazurin, 96 h); type: cell-based, Giardia duodenalis; conditions: read-out: IC50prol, Assemblage A (50% inhibition in the proliferation assay)
Experimental: The effect of the compounds on the proliferation of Giardia trophozoites was determined following the protocol outlined above, with the following modifications. The number of trophozoites was decreased to 1000 per well and the cells were incubated in the presence of each compound for 96 h at 37 °C.
as §4

[4] = tested on: Giardia duodenalis trophozoites; assay: Modified adherence assay; type: cell-based; conditions: 4 μM, 5 h exposure
Experimental: (§5) A second screening method, based on counting adherent trophozoites, was developed and used to validate the primary screen method, modified from earlier adherence assay protocols ([Crouch et al., 1986]). The assay was prepared in 24 well plates with plastic coverslips placed in the bottom. Trophozoites were prepared as above by placing on ice and ∼5 × 10^5 cells/mL were added to each well. Drugs prepared in DMSO were added at the required concentration, with the DMSO concentration never exceeding 1%. Assay plates were incubated for 5 h at 37 °C under anaerobic conditions, the media removed and cells adhering to the coverslips were fixed with glutaraldehyde or methanol. Once the coverslips were dry, cells were stained with a Romanowsky stain variant (Rapid stain), fixed to a glass slide and imaged at 10x or 100x magnification. Images (10x magnification) were processed with DotCount v1.2 software (http://reuter.mit.edu/, 2008–2012 ^© Martin Reuter) to count the number of cells present and data analysed using GraphPad Prism version 6.00 for Windows, GraphPad Software, La Jolla California USA, www.graphpad.com. Images (100x magnification) were assessed for obvious morphological changes.
The results for the in vitro drug efficacy studies were analysed using GraphPad Prism version 6.00 for Windows, GraphPad Software, La Jolla California USA, www.graphpad.com. For the resazurin reduction assay the mean and standard error of the mean were determined with each assay completed in triplicate. The IC50 was calculated using the log (inhibitor) vs. normalised response – variable slope function in Graphpad Prism. For the adherence assay mean and standard error of the mean were calculated and data analysed using an unpaired t-test, relative to untreated control.
Fig. 3 Inhibition of adherence of Giardia duodenalis by metronidazole (Mz), robenidine, NCL 062 and NCL 099. Cells were exposed to the compounds for 5 h before staining. Stained cells were imaged at 10x magnification and counted using DotCount™ software. Each assay was completed in triplicate and 5 images taken per sample. Top. Number of adherent trophozoites after exposure to 4 μM of each compound for 5 h; Bottom. An example of the Dotcount software identifying trophozoites at higher magnification. Left: stained trophozoites, Right: highlighted trophozoites identified by the Dotcount software. Each highlighted cell is counted individually. Error ± SEM. * p-value <0.05, ** p-value <0.0001.

[5] = tested on: G. duodenalis trophozoites; assay: Giardia recovery assay; type: cell-based, Giardia duodenalis; conditions: 5 h at 5x the IC50, counts at 24 and 48 h post exposure
Experimental: G. duodenalis trophozoites were harvested on ice as outlined above and 5 × 10^5 cells/mL were added to 1.5 mL centrifuge tubes. […] After exposure cells were collected by placing tubes on ice for 40 min followed by centrifugation at 900×g for 5 min. The supernatant was removed and cells were resuspended in 8 mL of fresh media (in a 9 mL culture tube). The number of trophozoites was counted using a haemocytometer and cells were incubated for 48 h with cell numbers being determined at 24 and 48 h.
Fig. 7 Recovery assay of Giardia duodenalis exposed to robenidine and metronidazole. Giardia trophozoites were exposed to robenidine or metronidazole for 5 h at 5x the IC50. Key: closed circle – growth control, triangle – metronidazole, square – robenidine, open circle – NCL 062, diamond – NCL 099. Cell numbers were determined at 24 and 48 h post exposure. Error ± SD.

[6] = tested on: Giardia duodenalis BAH2c2 strain, assemblage A; assay: Resazurin reduction assay, assemblage A isolate; type: cell-based
[7] = tested on: giardiasis; set-up: method as in Wright et al., 2003; conditions: ref Wright et al., 2003; cited from earlier work
[8] = In vitro cytotoxicity, murine macrophage cells; conditions: mouse, RAW 264.7 murine macrophage cells
[9] = tested on: AT region of DNA; set-up: method as in Nguyen et al., 2002; conditions: ref Nguyen et al., 2002; cited from earlier work
[10] = tested on: Giardia trophozoites; assay: Morphology of stained trophozoites at 100x magnification; type: cell-based, Giardia duodenalis
Experimental: as §5
Fig. 4 Morphological effect of Robenidine and NCL 099 on Giardia trophozoites. Giardia trophozoites were exposed to each compound for 24 h before fixation with glutaraldehyde and staining following the Diff quik protocol. A-control cells, B – cells treated with metronidazole (IC50, 2 μM), C- robendine treated cells (IC50, 2 μM), D – NCL 099 treated cells (IC50, 3 μM), E − NCL 099 treated cells (2 x IC50).

[11] = BAH2c2, 24 h, resazurin metabolic assay
[12] = BAH2c2, 1000 trophozoites per well

SMILES	MLC (minimum lethal concentration), Assemblage A ([1]; BAH2c2, 24 h) [µM]	IC50 [1, 11] [nM]	MLC, Assemblage B [2] [µM]	IC50 [2] [µM]	IC50 [3, 12] [nM]	Effect on adherence of trophozoites [4]	Recovery of trophozoites after short-term exposure [5]	Treatment success rate [7]	GI50 [8] [µM]	other results
Cc1ncc([N+](=O)[O-])n1CCO [Metronidazole]	2.8 (≈ 0.479 µg/mL)	2000 ± 1000	16.6 (≈ 2.84 µg/mL)	3.8 ± 0.5	1700 ± 2000	no significant effect on cell adherence	did not have any permanent effects	80–90%	–	Time required to exhibit inhibitory activity [6]: 24 h
CCCSc1ccc2nc(NC(=O)OC)[nH]c2c1 [Albendazole]	0.02 to 0.07	–	–	–	–	–	–	–	–	IC50 [1]: < 20 nM; IC50 [3]: 800 ± 700 nM; Reported efficacy [7]: 62–95%
C/C(=N\NC(=N)N/N=C(\C)c1ccc(Cl)cc1)c1ccc(Cl)cc1.Cl [NCL 062, (E)-N'-((E)-1-(4-chlorophenyl)ethylidene)-2-(1-(4-chlorophenyl)ethylidene)hydrazine-1-carboximidhydrazide hydrochloride]	0.9	800 ± 600	3.1	1.8 ± 0.0008	2000 ± 1300	complete inhibition of adherence	unable to recover	–	4	–
Cl.Cl.Cl.N=C(N)c1cccc(/C=N/N=C(\N)N/N=C/c2cccc(C(=N)N)c2)c1 [CGP 40215A]	–	–	–	–	–	–	–	–	–	Binding to the AT region of DNA [9]: strong bond
CCS(=O)(=O)CCn1c([N+](=O)[O-])cnc1C [tinidazole]	–	–	–	–	–	–	–	80–90%	–	–
CC(C)(C)c1ccc(/C=N/NC(=N)N/N=C/c2ccc(C(C)(C)C)cc2)cc1.Cl [NCL 099, N′,2-bis((E)-4-(tert-butyl)benzylidene)hydrazine-1-carboximidhydrazide hydrochloride]	8.3	3000 ± 300	5.5	3.3 ± 0.2	11100 ± 800	significantly affected adherence of trophozoites at 4 μM, but did not completely inhibit adherence	able to recover after short-term exposure but growth was slower	–	7.3	Morphological effect on stained trophozoites at 2 x the IC50 ([10]; 2 x IC50, 100 x magnification): disintegration of the cell membrane; Morphological effect on stained trophozoites at the IC50 ([10]; at IC50, 100 x magnification): decrease in the membrane stain intensity
